How the values were obtained:
Cricetinae gen. sp. [1] = assay: Percentage change in serum HDL cholesterol in male hamster after 3-day treatment at 15 mpk; format: functional
[2] = target: T1, Microsomal triglyceride transfer protein large subunit (Homo sapiens, UniProt P55157); assay: In vitro inhibitory concentration against human Microsomal triglyceride transfer protein; format: functional
T1 sequence (P55157 whole entry): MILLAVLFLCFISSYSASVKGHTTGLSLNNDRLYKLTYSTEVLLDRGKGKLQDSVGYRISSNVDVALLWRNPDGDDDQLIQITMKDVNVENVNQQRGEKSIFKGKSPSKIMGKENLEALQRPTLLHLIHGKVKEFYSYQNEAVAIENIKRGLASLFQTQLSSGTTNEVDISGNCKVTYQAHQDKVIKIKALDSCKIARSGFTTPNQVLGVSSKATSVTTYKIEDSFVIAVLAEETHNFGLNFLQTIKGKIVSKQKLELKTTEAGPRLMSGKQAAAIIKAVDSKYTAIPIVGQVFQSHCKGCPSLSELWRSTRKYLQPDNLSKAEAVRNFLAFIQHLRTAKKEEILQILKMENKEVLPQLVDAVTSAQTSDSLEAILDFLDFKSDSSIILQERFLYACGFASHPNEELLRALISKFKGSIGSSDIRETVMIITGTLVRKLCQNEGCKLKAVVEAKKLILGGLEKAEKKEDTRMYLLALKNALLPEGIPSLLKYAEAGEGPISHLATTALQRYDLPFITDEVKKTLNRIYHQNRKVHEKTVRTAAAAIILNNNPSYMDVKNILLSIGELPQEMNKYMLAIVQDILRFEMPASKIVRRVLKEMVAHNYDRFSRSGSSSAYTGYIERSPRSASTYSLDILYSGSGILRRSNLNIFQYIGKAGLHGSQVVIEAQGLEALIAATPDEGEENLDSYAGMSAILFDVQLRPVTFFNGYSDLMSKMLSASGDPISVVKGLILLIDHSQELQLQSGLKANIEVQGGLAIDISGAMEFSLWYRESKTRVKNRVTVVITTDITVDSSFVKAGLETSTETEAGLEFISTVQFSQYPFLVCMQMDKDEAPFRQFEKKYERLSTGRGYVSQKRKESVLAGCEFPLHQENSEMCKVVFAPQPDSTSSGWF

HepG2 = assay: inhibitory activity against secretion of lipoproteins apoB and apoA1 from human HepG2 cell lines; format: functional; settings: read-out: ED50 (the source's name)
Cricetinae gen. sp. [3] = assay: Concentration required for change in serum HDL cholesterol in male hamster after 3-day treatment; format: functional, Cricetulus griseus; settings: 72 h
Mesocricetus auratus = species: Mesocricetus auratus; assay: Percentage change in serum HDL cholesterol in male hamster after 3-day treatment at 30 mpk
[4] = target: T1, Microsomal triglyceride transfer protein large subunit; assay: In vitro inhibition concentration required against triglyceride transfer of human Microsomal triglyceride transfer protein; format: functional; settings: read-out: I50
Cricetinae gen. sp. [5] = assay: Percentage change in serum HDL cholesterol in male hamster after 3-day treatment at 20 mpk; format: functional, Cricetulus griseus

| SMILES | Activity (Cricetinae gen. sp. [1]) [%] | IC50 [2] [nM] | EC50 (HepG2; Homo sapiens, HepG2) [nM] | Activity (Mesocricetus auratus) [%] | further results |
| --- | --- | --- | --- | --- | --- |
| O=C(N[C@H]1CC[N@+]([O-])(CCCCC2(C(=O)NCC(F)(F)F)c3ccccc3-c3ccccc32)CC1)c1ccccc1-c1ccc(C(F)(F)F)cc1 | -77 | 5 | 0.9 | – | – |
| O=C(NC1COP(=O)(CCCCC2(C(=O)NCC(F)(F)F)c3ccccc3-c3ccccc32)OC1)c1ccccc1-c1nc2ccccc2s1 (stereo not drawn) | -76 | 9 | 7.5 | – | ED50 (Cricetinae gen. sp. [3]): 4 mg/kg |
| O=C(NC1COP(=O)(CCCCC2(C(=O)NCC(F)(F)F)c3ccccc3-c3ccccc32)OC1)c1ccccc1N1CCOCC1 (stereo not drawn) | -3 | 12 | – | – | – |
| O=C(NC1COP(=O)(CCCCC2(C(=O)NCC(F)(F)F)c3ccccc3-c3ccccc32)OC1)OCc1ccccc1 (stereo not drawn) | – | 14 | 40 | – | – |
| CCCCOP(=O)(CCCCC1(C(=O)NCC(F)(F)F)c2ccccc2-c2ccccc21)OCCCC | – | 22 | 7 | -5 | – |
| O=C(NC1COP(=O)(CCCCC2(C(=O)NCC(F)(F)F)c3ccccc3-c3ccccc32)OC1)OCc1ccccc1 (cis isomer) | – | – | – | – | IC50 [4]: 210 nM |
| O=C(NC1COP(=O)(CCCCC2(C(=O)NCC(F)(F)F)c3ccccc3-c3ccccc32)OC1)c1ccccc1-c1ccc(C(F)(F)F)cc1 (cis isomer) | – | 44 | – | – | Activity (Cricetinae gen. sp. [5]): -4%; EC50 (HepG2): 18 nM |
| O=C(NC1COP(=O)(CCCCC2(C(=O)NCC(F)(F)F)c3ccccc3-c3ccccc32)OC1)c1ccccc1-c1ccc(C(F)(F)F)cc1 (stereo in doubt; 3a) | – | 7 | – | -73 | ED50 (Cricetinae gen. sp. [3]): 3.3 mg/kg; EC50 (HepG2): 0.65 nM |
| O=C(NC1COP(=O)(CCCCC2(C(=O)NCC(F)(F)F)c3ccccc3-c3ccccc32)OC1)c1ccccc1-c1ccccn1 (trans isomer) | -19 | < 10 | 79 | – | – |
| O=C(NC1COP(=O)(CCCCC2(C(=O)NCC(F)(F)F)c3ccccc3-c3ccccc32)OC1)c1ccccc1 (trans isomer) | -12 | 11 | 23 | – | – |
| O=C(NC1COP(=O)(CCCCC2(C(=O)NCC(F)(F)F)c3ccccc3-c3ccccc32)OC1)c1ccccc1-c1nc2ccccc2o1 (trans isomer) | – | 3 | – | -13 | – |
| O=C(NC1CCN(CCCCC2(C(=O)NCC(F)(F)F)c3ccccc3-c3ccccc32)CC1)c1ccccc1-c1ccc(C(F)(F)F)cc1 [LOMITAPIDE] | – | – | 0.8 | -92 | ED50 (Cricetinae gen. sp. [3]): 2 mg/kg |

— ChEMBL document CHEMBL1137891, “5-Carboxamido-1,3,2-dioxaphosphorinanes, potent inhibitors of MTP” (Bioorg Med Chem Lett, 2004)
